Where “and” joins values, the source holds several entries; their conditions need not be identical. Identical values can stand only once. Some results are limits rather than exact numbers.

The test system of this test is DU-145 multicell spheroids with HUVEC/MSC, viability. The test can be described thus: Anticancer human tumor DU-145 cell line growth inhibition [IpAb].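 As to all read-outs here: spheroids exposed to agents for seven days before measurement.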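 As to viability, T/C: percent of DMSO vehicle control viability so 100% = untreated level.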 The settings on record: for viability, T/C: stronger effect = lower value. An outline of the steps:
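Multi-cell spheroids of 60% tumour cells, 25% HUVEC and 15% MSC in ultra-low-attachment U-bottom wells, treated with agents combined with ipatasertib or abemaciclib. Half-log ranges top out near clinical Cmax, or 10 microM when Cmax is unknown.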

Where [1] appears, read: curve of first compound, second compound 0.1 µM.
Setting [2] is: curve of first compound, second compound 0.316 µM.
[3] abbreviates: curve of first compound, second compound 1 µM.
The mark [4] stands for this setting: curve of first compound, second compound 3.16 µM.
[5] abbreviates: curve of first compound, second compound 10 µM.
Where [6] appears, read: second compound 0.1 µM, first compound 0.0316 µM.
Where [7] appears, read: second compound 0.1 µM, first compound 0.1 µM.
Setting [8] is: second compound 0.1 µM, first compound 0.316 µM.
Where [9] appears, read: second compound 0.1 µM, first compound 1 µM.
Setting [10] is: second compound 0.1 µM, first compound 3.16 µM.
Setting [11] is: second compound 0.1 µM, first compound 10 µM.
[12] abbreviates: second compound 0.316 µM, first compound 0.0316 µM.
[13] abbreviates: second compound 0.316 µM, first compound 0.1 µM.
Where [14] appears, read: second compound 0.316 µM, first compound 0.316 µM.
Setting [15] is: second compound 0.316 µM, first compound 1 µM.
Setting [16] is: second compound 0.316 µM, first compound 3.16 µM.
[17] abbreviates: second compound 0.316 µM, first compound 10 µM.
The mark [18] stands for this setting: second compound 1 µM, first compound 0.0316 µM.
The mark [19] stands for this setting: second compound 1 µM, first compound 0.1 µM.
The mark [20] stands for this setting: second compound 1 µM, first compound 0.316 µM.
The mark [21] stands for this setting: second compound 1 µM, first compound 1 µM.
The mark [22] stands for this setting: second compound 1 µM, first compound 3.16 µM.
[23] abbreviates: second compound 1 µM, first compound 10 µM.
The mark [24] stands for this setting: second compound 3.16 µM, first compound 0.0316 µM.
Where [25] appears, read: second compound 3.16 µM, first compound 0.1 µM.
[26] abbreviates: second compound 3.16 µM, first compound 0.316 µM.
Where [27] appears, read: second compound 3.16 µM, first compound 1 µM.
The mark [28] stands for this setting: second compound 3.16 µM, first compound 3.16 µM.
Where [29] appears, read: second compound 3.16 µM, first compound 10 µM.
Setting [30] is: second compound 10 µM, first compound 0.0316 µM.
The mark [31] stands for this setting: second compound 10 µM, first compound 0.1 µM.
[32] abbreviates: second compound 10 µM, first compound 0.316 µM.
[33] abbreviates: second compound 10 µM, first compound 1 µM.
Where [34] appears, read: second compound 10 µM, first compound 3.16 µM.
Setting [35] is: second compound 10 µM, first compound 10 µM.

`Cn1nccc1Nc1nccc(-c2ccn(C(CO)c3ccc(Cl)c(F)c3)c(=O)c2)n1` (configuration not stated) + CC(C)NCC(C(=O)N1CCN(c2ncnc3c2C(C)CC3O)CC1)c1ccc(Cl)cc1: the IC50 (in general, the midpoint of a concentration-inhibition curve) by setting is: under setting [1], > 10000 nM; under setting [2], < 31.6 nM; under setting [3], < 31.6 nM; under setting [4], < 31.6 nM; under setting [5], < 31.6 nM. Also, the viability, T/C (usually the result in the treated group divided by that in the control group, in per cent) was 65.6% under setting [6]; 57.1% under setting [7]; 60% under setting [8]; 76.8% under setting [9]; 99% under setting [10]; 66.2% under setting [11]. The viability, T/C reads like this: under setting [12], 42.6%; under setting [13], 36.2%; under setting [14], 35.8%; under setting [15], 45.7%; under setting [16], 66.3%; under setting [17], 60.3%. The viability, T/C is 27.4% under setting [18]; 24.6% under setting [19]; 26.2% under setting [20]; 30.7% under setting [21]; 42.3% under setting [22]; 47.6% under setting [23]. Moreover, the viability, T/C runs as follows: under setting [24], 18.7%; under setting [25], 16.5%; under setting [26], 19.3%; under setting [27], 20.7%; under setting [28], 27.6%; under setting [29], 36.8%. The viability, T/C under setting [30] is 13.4%; the viability, T/C under setting [31] was 11.6%; the viability, T/C under setting [32] is 11.7%; the viability, T/C under setting [33] is 14.3%; the viability, T/C under setting [34] was 21.7%; the viability, T/C under setting [35] is 24.6%.
Turning to `C=CC(=O)N1CCN(c2nc(=O)n(-c3c(C)ccnc3C(C)C)c3nc(-c4c(O)cccc4F)c(F)cc23)C(C)C1` (configuration not stated), the viability, T/C reads like this: (compound 0.0316 µM) 104% and 107%; (compound 0.1 µM) 109% and 108%; (compound 0.316 µM) 107% and 109%; (compound 1 µM) 112% and 113%; (compound 3.16 µM) 90.7% and 103%; (compound 10 µM) 44.1% and 48.9%. Further, under “curve of compound”, the IC50 is 8660 nM and 9820 nM.
Turning to `Cn1cnc2c(F)c(Nc3ccc(Br)cc3Cl)c(C(=O)NOCCO)cc21`, the viability, T/C by setting is: (compound 0.00949 µM) 84.1% and 81.8%; (compound 0.03 µM) 67.6% and 74.4%; (compound 0.0949 µM) 60.8% and 66.5%; (compound 0.3 µM) 55.5% and 53.2%; (compound 0.949 µM) 48% and 51.1%; (compound 3 µM) 42.9% and 37.9%. In addition, the IC50 (curve of compound) was 597 nM and 704 nM.
In the case of `CCCS(=O)(=O)Nc1ccc(F)c(C(=O)c2c[nH]c3ncc(-c4ccc(Cl)cc4)cc23)c1F`, the viability, T/C reads like this: (compound 0.0316 µM) 112% and 110%; (compound 0.1 µM) 108% and 114%; (compound 0.316 µM) 110% and 116%; (compound 1 µM) 115% and 118%; (compound 3.16 µM) 109% and 113%; (compound 10 µM) 79.7% and 82.9%. In addition, the IC50 (curve of compound) was > 10000 nM.
With `C=CC(=O)N1CCN(c2nc(=O)n(-c3c(C)ccnc3C(C)C)c3nc(-c4c(O)cccc4F)c(F)cc23)C(C)C1` (configuration not stated) + CC(C)NCC(C(=O)N1CCN(c2ncnc3c2C(C)CC3O)CC1)c1ccc(Cl)cc1, the IC50 reads like this: under setting [1], 8760 nM; under setting [2], 4170 nM; under setting [3], < 31.6 nM; under setting [4], < 31.6 nM; under setting [5], < 31.6 nM. Further, the viability, T/C reads like this: under setting [6], 81.3%; under setting [7], 87.7%; under setting [8], 86.1%; under setting [9], 92%; under setting [10], 82.9%; under setting [11], 45.5%. Also, the viability, T/C is 53.9% under setting [12]; 55% under setting [13]; 59.1% under setting [14]; 59.2% under setting [15]; 52.9% under setting [16]; 37.8% under setting [17]. For the same molecule, the viability, T/C runs as follows: under setting [18], 34%; under setting [19], 35.5%; under setting [20], 37.6%; under setting [21], 37.4%; under setting [22], 34.5%; under setting [23], 28.3%. Moreover, the viability, T/C under setting [24] is 22.4%; the viability, T/C under setting [25] was 21.9%; the viability, T/C under setting [26] was 27.5%; the viability, T/C under setting [27] is 24.4%; the viability, T/C under setting [28] is 24.5%; the viability, T/C under setting [29] is 20.7%. The viability, T/C is, setting by setting: under setting [30], 19.5%; under setting [31], 19.3%; under setting [32], 18.5%; under setting [33], 21.6%; under setting [34], 19.9%; under setting [35], 17.1%.
For `CC(=O)c1c(C)c2cnc(Nc3ccc(N4CCNCC4)cn3)nc2n(C2CCCC2)c1=O` + CCN1CCN(Cc2ccc(Nc3ncc(F)c(-c4cc(F)c5nc(C)n(C(C)C)c5c4)n3)nc2)CC1, the IC50 is, setting by setting: (curve of first compound, second compound 0.01 µM) > 300 nM; (curve of first compound, second compound 0.0316 µM) > 300 nM; under setting [1], > 300 nM; under setting [2], > 300 nM; under setting [3], > 300 nM. The viability, T/C was 88.5% (second compound 0.01 µM, first compound 0.000949 µM); 90.5% (second compound 0.01 µM, first compound 0.003 µM); 87.2% (second compound 0.01 µM, first compound 0.00949 µM); 90.4% (second compound 0.01 µM, first compound 0.03 µM); 90.2% (second compound 0.01 µM, first compound 0.0949 µM); 84.8% (second compound 0.01 µM, first compound 0.3 µM). Further, the viability, T/C by setting is: (second compound 0.0316 µM, first compound 0.000949 µM) 93.7%; (second compound 0.0316 µM, first compound 0.003 µM) 84.9%; (second compound 0.0316 µM, first compound 0.00949 µM) 90%; (second compound 0.0316 µM, first compound 0.03 µM) 85.4%; (second compound 0.0316 µM, first compound 0.0949 µM) 83.4%; (second compound 0.0316 µM, first compound 0.3 µM) 80.9%. Also, the viability, T/C reads like this: (second compound 0.1 µM, first compound 0.000949 µM) 78.6%; (second compound 0.1 µM, first compound 0.003 µM) 76.9%; (second compound 0.1 µM, first compound 0.00949 µM) 77.9%; (second compound 0.1 µM, first compound 0.03 µM) 76.9%; (second compound 0.1 µM, first compound 0.0949 µM) 73.4%; (second compound 0.1 µM, first compound 0.3 µM) 76.7%. Besides, the viability, T/C was 74.5% (second compound 0.316 µM, first compound 0.000949 µM); 72% (second compound 0.316 µM, first compound 0.003 µM); 75.5% (second compound 0.316 µM, first compound 0.00949 µM); 75% (second compound 0.316 µM, first compound 0.03 µM); 71.3% (second compound 0.316 µM, first compound 0.0949 µM); 66.6% (second compound 0.316 µM, first compound 0.3 µM). Besides, the viability, T/C (second compound 1 µM, first compound 0.000949 µM) is 58.9%; the viability, T/C (second compound 1 µM, first compound 0.003 µM) was 61.2%; the viability, T/C (second compound 1 µM, first compound 0.00949 µM) was 61.6%; the viability, T/C (second compound 1 µM, first compound 0.03 µM) is 60.4%; the viability, T/C (second compound 1 µM, first compound 0.0949 µM) is 58%; the viability, T/C (second compound 1 µM, first compound 0.3 µM) was 60.2%.
As for `CC(C)NCC(C(=O)N1CCN(c2ncnc3c2C(C)CC3O)CC1)c1ccc(Cl)cc1` (configuration not stated), the viability, T/C by setting is: (compound 0.1 µM) 81.1% [middle of 13 runs]; (compound 0.316 µM) 53.8% [middle of 13 runs]; (compound 1 µM) 30.9% [middle of 13 runs]; (compound 3.16 µM) 21.7% [middle of 13 runs]; (compound 10 µM) 17.5% [middle of 13 runs]. For the same molecule, the IC50 (compound alone, run of 06/01/2021) is 381 nM [middle of 13 runs].

For the origin of these results see PubChem BioAssay AID2060335 (Molecular Pharmacology Branch, DTP, NCI, 2025).
